Reference: patent publication US11357750B2, “Cysteamine prodrugs” (Children's Hospital Medical Center, priority 2017, dated 2022)
Counter-ions that a name gives are not always drawn. Values belong to the compound of their own block, whether it stands above or below them.

Experiments:
[1] = Pharmacokinetic (PK) study of cysteamine in plasma after oral dosing in rats, blood sampling from portal vein and heart (HPV protocol); type: in vivo, rat
Protocol: Absorption and hepatic extraction information after oral administration and blood sampling from portal vein and heart (HPV protocol) were evaluated.
Blood samples were collected at intervals up to 24 h after dose administration (n=3 animals per each time point).
Sample Collection and Handling: After PO administration, blood samples were collected under deep Isofluorane anesthesia from portal vein and heart of each rat (3 rats per each time point). Blood was collected into potassium EDTA tubes at each of the following time points post-dose (actual times will be recorded): 0.25, 0.5, 1, 2, 4, 6, 8, 12 and 24 hours after dosing. All blood samples were thoroughly, but gently mixed following collection, placed on ice and centrifuged as soon as possible (2000 g for 5 min at 0° C.) to prepare plasma. Duplicate 50 μL aliquots of plasma samples were transferred in micronic tubes.
Plasma Sample Preparation: • 1. Calibration standards (CS) and quality control (QC) plasma samples were prepared by adding 5 μL WS to 45 μL of fresh plasma into micronic tubes using Tecan. • 2. Pseudo QC were prepared by adding 5 μL WSQC to 45 μL of water into micronic tubes using Tecan. • 3. CS, QC, pseudo QC and blank were diluted with 200 μL of KCl solution (1.15%). • 4. Plasma collection was performed by laboratory automation system (LAS). 50 μL whole plasma was transferred into micronic tubes containing 200 μL of KCl solution (1.15%). • 5. All samples were added […] with 20 μL of glutathione ethyl ester as internal standard (0.01 mg/mL in water) and 100 μL of Ellman's reagent (10 mM in water). • 6. […]
Plasma sample analysis: Samples were assayed for cysteamine using a method based on protein precipitation followed by HPLC/MS-MS analysis. Study samples were analyzed in discrete batches together with calibration standards (CS), used to construct calibration curves and blank samples (including also double blanks), used to assess specificity. […] The presence of prodrug and its products were monitored but not quantified in both portal and systemic plasma. […]

[2] = tested on: intracellular cystine (circulating white blood cells); details: taken regularly; measured in circulating white blood cells; cited from earlier work
[3] = cited from earlier work

Fa % (fraction absorbed) ([1]; male, CD, rat, in vivo, po): 16.1%
SMILES: NCCS [Cysteamine Hydrochloride, cysteamine hydrochloride]

SMILES: Cl.NCCS.OCC(O)CO [Glycerol Cysteamine Hydrochloride, glycerol cysteamine hydrochloride]
Release of cysteamine hydrochloride from the glycerol prodrug moiety (conclusion) ([1]; rats PO, gastrointestinal (GI) tract): fully separated from the glycerol prodrug moiety in the gastrointestinal (GI) tract
Cysteamine levels in portal plasma after prodrug administration ([1]; rats PO, versus cysteamine hydrochloride administration): comparable to those observed after cysteamine hydrochloride administration

SMILES: NCCS [cysteamine, 2-aminoethane-1-thiol]
Depletion of intracellular cystine [2]: up to 90%
Duration of activity (short half-life) ([3]; in vivo): 5 to 6 h
Estimated bioavailability ([3]; oral administration, extensive first pass metabolism): 10-30%
